IC50 data for 16 compounds are collected here from US20040198731A1, “Aminoalkyl-substituted aromatic bicyclic compounds, methods for their preparation and their use as pharmaceuticals” (Aventis Pharma Deutschland GmbH, priority 2001, published 2004).

The target of this assay is T1, human MCH receptor (Homo sapiens, UniProt Q99705).
T1 construct: expressed in transfected cells
Put plainly: Functional measurement of cellular calcium flow (FLIPR) in recombinant HEK293 cells expressing human MCH receptor. The class given is cell-based. The conditions noted are these: cellular assay, calcium flow after addition of agonist (MCH), HEK293 (PEAK Stable Cells) expressing human MCH receptor. From the text:
In two simultaneously published articles in Nature (Nature, 400:261-264, 1999; Nature, 400:265-269, 1999, see enclosure), two groups separately described a highly specific receptor for melanin-concentrating hormone (MCH). MCH takes over important functions in the control of food intake. Compounds acting on the MCH receptor therefore have anorectic action and are suitable for the treatment of obesity. The test for anorectic action of the inventive compounds of formula I was therefore carried out as follows.
Functional measurements for determination of IC50
Cloning of the cDNA for human MCH receptor, preparation of a recombinant HEK293 cell line expressing human MCH receptor and functional measurements with said recombinant cell line were carried out according to the description by Audinot et al. (J. Biol. Chem., 276, 13554-13562, 2001). In contrast to the reference, however, plasmid pEAK8 from EDGE Biosystems (USA) was used for constructing the expression vector. A transformed HEK cell line named “PEAK Stable Cells” (likewise from EDGE Biosystems) served as host for transfection. The functional measurements of cellular calcium flow, after addition of agonists (MCH), in the presence of the ligand of the invention was carried out with the aid of the FLIPR instrument from Molecular Devices (USA), using the manufacturer's protocols.

T1 sequence (Q99705 whole entry): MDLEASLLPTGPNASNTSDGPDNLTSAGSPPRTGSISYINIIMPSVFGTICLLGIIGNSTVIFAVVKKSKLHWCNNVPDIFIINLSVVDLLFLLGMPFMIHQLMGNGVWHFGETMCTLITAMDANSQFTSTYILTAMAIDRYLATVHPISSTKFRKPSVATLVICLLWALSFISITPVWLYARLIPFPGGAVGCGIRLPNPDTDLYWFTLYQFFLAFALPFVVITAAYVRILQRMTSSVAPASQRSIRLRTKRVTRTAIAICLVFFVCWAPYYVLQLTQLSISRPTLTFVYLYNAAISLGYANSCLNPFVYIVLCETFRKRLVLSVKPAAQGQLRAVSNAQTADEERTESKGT

As for `CN(C)CCn1ccc2cc(NC(=O)Nc3ccc(Oc4cccc(Cl)c4)cc3)ccc21` [Example 77, 1-[4-(3-Chloro-phenoxy)-phe-nyl]-3-[1-(2-dimethyl-aminoethyl)-1H-in-dol-5-yl]urea], the concentration for half-maximal inhibition (IC50) worked out at 700 nM. For `CN(C)CCn1ccc2cc(NC(=O)Nc3ccc(N4CC=CCC4)cc3)ccc21` [Example 24, 1-[4-(3,6-Dihydro-2H-py-ridin-1-yl)phenyl]-3-[1-(2-di-methylaminoethyl)-1H-in-dol-5-yl]urea] the value was 860 nM. With `Cc1nc2cc(NC(=O)Nc3ccc(OC(C)C)cc3)ccc2n1CCN(C)C` [Example 5, 1-[1-(2-Dimethylaminoethyl)-2-methyl-1H-benzoimidazol-5-yl]-3-(4-isopropoxyphenyl)urea] the figure was 500 nM; with `Cc1nc2cc(NC(=O)Nc3ccc(Oc4ccccc4)cc3)ccc2n1CCN(C)C` [Example 10, 1-[2-Methyl-1-(2-dimethylaminoethyl)-1H-benzoimidazol-5-yl]-3-(4-phenoxyphenyl)urea], 110 nM. For `CC(C)COc1ccc(NC(=O)Nc2ccc3c(ccn3CCN(C)C)c2)cc1F` [Example 65, 1-[1-(2-Dimethyl-aminoethyl)-1H-in-dol-5-yl]-3-(3-fluoro-4-iso-butoxyphenyl)urea], the IC50 was found to be 500 nM. For `CCCCOc1ccc(NC(=O)Nc2ccc3c(ccn3CCN(C)C)c2)cc1` [Example 2, 1-(4-Butoxyphenyl)-3-[1-(2-dimethylaminoethyl)-1H-indol-5-yl]urea] the value was 150 nM; for `Cc1ccc(Oc2ccc(NC(=O)Nc3ccc4c(ccn4CCN(C)C)c3)cc2)cc1` [Example 84, 1-[1-(2-Di-methylaminoethyl)-1H-in-dol-5-yl]-3-(4-p-tolyl-oxyphenyl)urea], 400 nM. With `CC(C)COc1ccc(NC(=O)Nc2ccc3c(ccn3CCN(C)C)c2)c(F)c1` [Example 63, 1-[1-(2-Dimethyl-aminoethyl)-1H-in-dol-5-yl]-3-(2-fluoro-4-iso-butoxyphenyl)urea] the figure was 570 nM; with `CC1CCCN(c2ccc(NC(=O)Nc3ccc4c(ccn4CCN(C)C)c3)cc2)C1` (stereo not shown) [Example 29, 1-[1-(2-Di-methylaminoethyl)-1H-in-dol-5-yl]-3-[4-(3-methyl-piperidin-1-yl)phe-nyl]urea], 2910 nM. For `CN(C)CCn1ccc2cc(NC(=O)Nc3ccc(-c4ccc(F)cc4)cc3)ccc21` [Example 81, 1-[1-(2-Di-methylaminoethyl)-1H-in-dol-5-yl]-3-(4′-fluoro-biphenyl-4-yl)urea] the value was 2690 nM. On to `COc1cccc(Oc2ccc(NC(=O)Nc3ccc4c(ccn4CCN(C)C)c3)cc2)c1` [Example 109, 1-[1-(2-Dimethyl-aminoethyl)-1H-indol-5-yl]-3-[4-(3-meth-oxyphenoxy)-phenyl]urea], for which the IC50 was found to be 1290 nM. For `Cc1nc2cc(NC(=O)Nc3ccc(Oc4ccccc4)cc3)ccc2n1CCN1CCCC1` [Example 9] the value was 100 nM; for `CN(C)CCn1ccc2cc(NC(=O)Nc3ccc(-c4ccccc4)cc3)ccc21` [Example 78, 1-Biphenyl-4-yl-3-[1-(2-di-methylaminoethyl)-1H-in-dol-5-yl]urea], 2750 nM; for `CCN1CCCC1Cn1c(C)nc2cc(NC(=O)Nc3ccc(Oc4ccccc4)cc3)ccc21` (stereo not shown) [Example 16, 1-[1-(1-Ethylpyrrolidin-2-ylmethyl)-2-methyl-1H-benzoimidazol-5-yl]-3-(4-phenoxy-phenyl)urea], 330 nM. As to `CN(C)Cc1nc2cc(NC(=O)Nc3ccc(Oc4ccccc4)cc3)ccc2[nH]1` [Example 17, 1-(2-Dimethylaminomethyl-1H-benzoimidazol-5-yl)-3-(4-phenoxyphenyl)urea], the IC50 was 2140 nM. For `CN(C)CCn1ccc2cc(NC(=O)Nc3ccc(Oc4cccnc4)cc3)ccc21` [Example 73, 1-[1-(2-Dimethyl-aminoethyl)-1H-in-dol-5-yl]-3-[4-(py-ridin-3-yloxy)phe-nyl]urea] the value was 140 nM.

For orientation: IC50 means the concentration needed to halve the response being measured.
